Drawing on patent US20240116985A1, “STAPLED PEPTIDES AND METHODS THEREOF” (priority 2020, published 2024), this text covers IC50 for 12 molecules.

Like-named read-outs stand apart in the source and are kept apart here.

The experiment concerns the target T1, full-length beta-Catenin (Uniprot ID P35222) (Homo sapiens, UniProt P35222).
T1 construct: 10 nM full-length beta-Catenin (Uniprot ID P35222)
T1 sequence (P35222 1-781): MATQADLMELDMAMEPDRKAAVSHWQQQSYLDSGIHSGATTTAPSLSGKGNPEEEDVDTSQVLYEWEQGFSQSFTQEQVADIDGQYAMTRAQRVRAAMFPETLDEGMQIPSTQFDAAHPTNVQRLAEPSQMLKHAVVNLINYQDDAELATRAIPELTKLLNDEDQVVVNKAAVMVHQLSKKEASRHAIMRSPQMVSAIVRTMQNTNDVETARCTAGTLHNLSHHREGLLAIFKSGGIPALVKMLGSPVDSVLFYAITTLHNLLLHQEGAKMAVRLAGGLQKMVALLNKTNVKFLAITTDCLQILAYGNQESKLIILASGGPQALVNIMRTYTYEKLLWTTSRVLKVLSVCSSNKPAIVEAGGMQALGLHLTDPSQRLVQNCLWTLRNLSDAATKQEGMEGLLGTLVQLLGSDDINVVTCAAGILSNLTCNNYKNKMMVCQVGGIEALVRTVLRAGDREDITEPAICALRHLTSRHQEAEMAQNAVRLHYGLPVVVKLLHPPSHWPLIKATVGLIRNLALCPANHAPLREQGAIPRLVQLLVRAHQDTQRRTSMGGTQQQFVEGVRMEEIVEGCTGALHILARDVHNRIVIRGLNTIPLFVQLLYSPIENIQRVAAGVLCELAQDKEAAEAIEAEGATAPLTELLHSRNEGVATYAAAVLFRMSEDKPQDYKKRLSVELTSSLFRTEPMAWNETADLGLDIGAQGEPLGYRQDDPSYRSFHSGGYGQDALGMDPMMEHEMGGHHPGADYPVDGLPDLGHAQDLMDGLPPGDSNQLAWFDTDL
The experiment in a line: Fluorescence polarization IC50 (beta-catenin / 5FAM-TCF4 10-53 competition). Type of experiment: binding. The settings on record: read-out: beta-Catenin FP IC50. Background: Fluorescence polarisation rises when a labelled molecule tumbles more slowly, as on binding a larger partner.

For orientation: IC50 means the concentration that inhibits the measured activity by half.

Take `CC(=O)N1CCC[C@]12CC=CCCCC1(CCCC=CCCCOC(=O)N3CC[C@@](C(=O)N[C@@H](Cc4ccsc4)C(=O)N[C@@H](Cc4c[nH]c5cccc(Cl)c45)C(=O)N[C@@H](CCC(N)=O)C(N)=O)(C3)NC(=O)[C@H](CC(N)=O)NC(=O)[C@H](Cc3ccccc3)NC(=O)[C@H](C)NC(=O)[C@H](C)NC(=O)[C@H](CC(=O)O)NC(=O)[C@H](CC(=O)O)NC1=O)NC(=O)[C@H](CC(C)(C)C)NC(=O)[C@H](CC(=O)O)NC2=O` (stereo partly drawn) [I-2176, Ac-PL3-Asp-Npg-B5-Asp-Asp-Ala-Ala-Phe-Asn-PyrS2-3Thi-4C1W-Gln-NH2]: for the setting “fluorescence polarization”, the IC50 was 87 nM.
On the same count and under the same terms, in the case of `CC(=O)N1CCC[C@]12CC=CCCCC1(CCCC=CCCCOC(=O)N3CC[C@@](C(=O)N[C@@H](Cc4ccsc4)C(=O)N[C@@H](Cc4c[nH]c5cccc(Cl)c45)C(=O)N[C@@H](CCC(N)=O)C(N)=O)(C3)NC(=O)[C@H](CC(C)C)NC(=O)[C@H](Cc3ccccc3)NC(=O)[C@H](C)NC(=O)[C@H](C)NC(=O)[C@H](CC(=O)O)NC(=O)[C@H](CC(=O)O)NC1=O)NC(=O)[C@H](CC(C)(C)C)NC(=O)[C@H](CC(=O)O)NC2=O` (stereo partly drawn) [I-2177, Ac-PL3-Asp-Npg-B5-Asp-Asp-Ala-Ala-Phe-Leu-PyrS2-3Thi-4C1W-Gln-NH2] it was 253 nM; in that of `CC(=O)N1CCC[C@]12CC=CCCCC1(CCCC=CCCCOC(=O)N3CC[C@@](C(=O)N[C@@H](Cc4ccsc4)C(=O)N[C@@H](Cc4c[nH]c5cccc(F)c45)C(=O)N[C@@H](CCC(N)=O)C(N)=O)(C3)NC(=O)[C@H](CC(N)=O)NC(=O)[C@H](Cc3ccccc3)NC(=O)[C@H](C)NC(=O)[C@H](C)NC(=O)[C@H](CC(=O)O)NC(=O)[C@H](CC(=O)O)NC1=O)NC(=O)[C@H](CC(C)(C)C)NC(=O)[C@H](CC(=O)O)NC2=O` (stereo partly drawn) [I-2178, Ac-PL3-Asp-Npg-B5-Asp-Asp-Ala-Ala-Phe-Asn-PyrS2-3Thi-4FW-Gln-NH2], 42 nM; in that of `CC(=O)N1CCC[C@]12CC=CCCCC1(CCCC=CCCCOC(=O)N3CC[C@@](C(=O)N[C@@H](Cc4ccsc4)C(=O)N[C@@H](Cc4c[nH]c5cccc(F)c45)C(=O)N[C@@H](CCC(N)=O)C(N)=O)(C3)NC(=O)[C@H](CC(C)C)NC(=O)[C@H](Cc3ccccc3)NC(=O)[C@H](C)NC(=O)[C@H](C)NC(=O)[C@H](CC(=O)O)NC(=O)[C@H](CC(=O)O)NC1=O)NC(=O)[C@H](CC(C)(C)C)NC(=O)[C@H](CC(=O)O)NC2=O` (stereo partly drawn) [I-2179, Ac-PL3-Asp-Npg-B5-Asp-Asp-Ala-Ala-Phe-Leu-PyrS2-3Thi-4FW-Gln-NH2], 67 nM.
The same measure, in the same setting: in the case of `CC(=O)N1CCC[C@]12CC=CCCCC1(CCCC=CCCCOC(=O)N3CC[C@@](C(=O)N[C@@H](Cc4ccsc4)C(=O)N[C@@H](Cc4c[nH]c5ncccc45)C(=O)N[C@@H](CCC(N)=O)C(N)=O)(C3)NC(=O)[C@H](CC(N)=O)NC(=O)[C@H](Cc3ccccc3)NC(=O)[C@H](C)NC(=O)[C@H](C)NC(=O)[C@H](CC(=O)O)NC(=O)[C@H](CC(=O)O)NC1=O)NC(=O)[C@H](CC(C)(C)C)NC(=O)[C@H](CC(=O)O)NC2=O` (stereo partly drawn) [I-2180, Ac-PL3-Asp-Npg-B5-Asp-Asp-Ala-Ala-Phe-Asn-PyrS2-3Thi-7AzaW-Gln-NH2] it was 2090 nM.
Same read-out and setting: in the case of `CC(=O)N1CCC[C@]12CC=CCCCC1(CCCC=CCCCOC(=O)N3CC[C@@](C(=O)N[C@@H](Cc4ccsc4)C(=O)N[C@@H](Cc4c[nH]c5ncccc45)C(=O)N[C@@H](CCC(N)=O)C(N)=O)(C3)NC(=O)[C@H](CC(C)C)NC(=O)[C@H](Cc3ccccc3)NC(=O)[C@H](C)NC(=O)[C@H](C)NC(=O)[C@H](CC(=O)O)NC(=O)[C@H](CC(=O)O)NC1=O)NC(=O)[C@H](CC(C)(C)C)NC(=O)[C@H](CC(=O)O)NC2=O` (stereo partly drawn) [I-2181, Ac-PL3-Asp-Npg-B5-Asp-Asp-Ala-Ala-Phe-Leu-PyrS2-3Thi-7AzaW-Gln-NH2] it was 2880 nM.
Consider `CC(=O)N1CCC[C@]12CC=CCCCC1(CCCC=CCCCOC(=O)N3CC[C@@](C(=O)N[C@@H](Cc4ccsc4)C(=O)N[C@@H](Cc4csc5ccccc45)C(=O)NC(CCCCNC(=O)c4ccc5c(c4)B(O)OC5)C(N)=O)(C3)NC(=O)[C@H](CC(C)C)NC(=O)[C@H](Cc3ccccc3)NC(=O)[C@H](C)NC(=O)[C@H](C)NC(=O)[C@H](CN(CC(=O)O)CC(F)(F)F)NC(=O)[C@H](CC(=O)O)NC1=O)NC(=O)[C@H](CC(C)(C)C)NC(=O)[C@H](CC(=O)O)NC2=O` (stereo partly drawn) [I-2186, Ac-PL3-Asp-Npg-B5-Asp-TfeGA-Ala-Ala-Phe-Leu-PyrS2-3Thi-BztA-BnBoroleK-NH2], for which the IC50 was 459 nM.
In the case of `CC(=O)N1CCC[C@]12CC=CCCCC1(CCCC=CCCCOC(=O)N3CC[C@@](C(=O)N[C@@H](Cc4ccsc4)C(=O)N[C@@H](Cc4csc5ccccc45)C(=O)N[C@@H](CC(C)(C)C)C(N)=O)(C3)NC(=O)[C@H](CC(C)C)NC(=O)[C@H](Cc3ccccc3)NC(=O)[C@H](C)NC(=O)[C@H](CC(=O)N(C)C)NC(=O)[C@H](Cc3cccc(C(=O)O)c3)NC(=O)[C@H](CC(=O)O)NC1=O)NC(=O)[C@H](CC(C)(C)C)NC(=O)[C@H](CC(=O)O)NC2=O` (stereo partly drawn) [I-2196, Ac-PL3-Asp-Npg-B5-Asp-3COOHF-Me2Asn-Ala-Phe-Leu-PyrS2-3Thi-BztA-Npg-NH2], the IC50 (fluorescence polarization) was 41 nM.
Same read-out and setting: in the case of `CC(=O)N1CCC[C@]12CC=CCCCC1(CCCC=CCCOC(=O)N3CC[C@@](C(=O)N[C@@H](Cc4ccsc4)C(=O)N[C@@H](Cc4csc5ccccc45)C(=O)N[C@@H](CCC(N)=O)C(N)=O)(C3)NC(=O)[C@H](CC(N)=O)NC(=O)[C@H](Cc3ccccc3)NC(=O)[C@H](C)NC(=O)[C@H](C)NC(=O)[C@H]([C@@H](C)O)NC(=O)[C@H](CC(N)=O)NC1=O)NC(=O)[C@H](CC(C)(C)C)NC(=O)[C@H](CC(=O)O)NC2=O` (stereo partly drawn) [I-2197, Ac-PL3-Asp-Npg-B5-Asn-Thr-Ala-Ala-Phe-Asn-PyrS1-3Thi-BztA-Gln-NH2] it was 2450 nM.
The same measure, in the same setting: in the case of `CC(=O)N1CCC[C@]12CC=CCCCC1(CCCC=CCCOC(=O)N3CC[C@@](C(=O)N[C@@H](Cc4ccsc4)C(=O)N[C@@H](Cc4csc5ccccc45)C(=O)N[C@@H](CCC(N)=O)C(N)=O)(C3)NC(=O)[C@H](CC(N)=O)NC(=O)[C@H](Cc3ccccc3)NC(=O)[C@H](C)NC(=O)[C@H](C)NC(=O)[C@H]([C@@H](C)O)NC(=O)[C@H](CC(N)=O)NC1=O)NC(=O)[C@H](CC(C)(C)C)NC(=O)[C@H](CC(=O)O)NC2=O` (stereo partly drawn) [I-2198, Ac-PL3-Asp-Npg-B5-Asn-Thr-Ala-Ala-Phe-Asn-PyrS1-3Thi-BztA-Gln-NH2] it was 1470 nM; in that of `CC(=O)N1CCC[C@]12CC=CCCCC1(CCCC=CCCCCOC(=O)N3CC[C@@](C(=O)N[C@@H](Cc4ccsc4)C(=O)N[C@@H](Cc4csc5ccccc45)C(=O)N[C@@H](CCC(N)=O)C(N)=O)(C3)NC(=O)[C@H](CC(N)=O)NC(=O)[C@H](Cc3ccccc3)NC(=O)[C@H](C)NC(=O)[C@H](C)NC(=O)[C@H]([C@@H](C)O)NC(=O)[C@H](CC(N)=O)NC1=O)NC(=O)[C@H](CC(C)(C)C)NC(=O)[C@H](CC(=O)O)NC2=O` (stereo partly drawn) [I-2199, Ac-PL3-Asp-Npg-B5-Asn-Thr-Ala-Ala-Phe-Asn-PyrS3-3Thi-BztA-Gln-NH2], 927 nM; in that of `CC(=O)N1CCC[C@]12CC=CCCCC1(CCCC=CCCCCC[C@@](C)(C(=O)N[C@@H](Cc3ccsc3)C(=O)N[C@@H](Cc3csc4ccccc34)C(=O)N[C@@H](CCC(N)=O)C(N)=O)NC(=O)[C@H](CC(N)=O)NC(=O)[C@H](Cc3ccccc3)NC(=O)[C@H](C)NC(=O)[C@H](C)NC(=O)[C@H]([C@@H](C)O)NC(=O)[C@H](CC(N)=O)NC1=O)NC(=O)[C@H](CC(C)(C)C)NC(=O)[C@H](CC(=O)O)NC2=O` (stereo partly drawn) [I-2200, Ac-PL3-Asp-Npg-B5-Asn-Thr-Ala-Ala-Phe-Asn-S7-3Thi-BztA-Gln-NH2], 8400 nM.
